This assay addresses T1, human kiss1 receptor (GPR54) (Homo sapiens, UniProt Q969F8).
T1 construct: host or cells: NFAT-bla CHO-K1 cells (Chinese hamster ovary), purchased recombinant cell line
Briefly: Kiss1 receptor (GPR54) binding activity of agonists, FRET detection in NFAT-bla CHO-K1 cells. The note with it: GPR54; measured according to the method of effect Embodiment 1; preliminary data; read-out: Preliminary measurement data (GPR54) EC50. Type of assay: cell-based.

SMILES strings stand for the structures. Starred links: 1 amine or outer side, 2 acyl side, 3 side chain; linkers in the order of their positions; H or OH if unused. Positions of bridges follow the written chain, without caps; N, C: chain ends. Non-standard residues stand in square brackets, D forms with d. Residues, ends and D or L forms follow the SMILES beside them. cPrCO(1-aminomethyl) = O=C(C1(CN[*:1])CC1)[*:2]; dPhe(2,4-Cl2) = N[C@H](Cc1ccc(Cl)cc1Cl)C(=O)O; PEG8 = NCCOCCOCCOCCOCCOCCOCCOCCOCCC(=O)O; Dip = N[C@H](C(=O)O)C(c1ccccc1)c1ccccc1; Ala(2-furyl) = N[C@@H](Cc1ccco1)C(=O)O; Pro(4,4-F2) = O=C(O)[C@@H]1CC(F)(F)CN1; dAla(2-furyl) = N[C@H](Cc1ccco1)C(=O)O; dPhe(4-F) = N[C@H](Cc1ccc(F)cc1)C(=O)O; Arg(Me) = CNC(=N)NCCC[C@H](N)C(=O)O; Hyp = O=C(O)[C@@H]1C[C@@H](O)CN1; azaPro = O=C(N1CCCN1[*:1])[*:2]; 2Thi = N[C@@H](Cc1cccs1)C(=O)O; NMeL = CN[C@@H](CC(C)C)C(=O)O; S5 = C=CCCC[C@](C)(N)C(=O)O; Pip = O=C(O)[C@@H]1CCCCN1; Ac6c = NC1(C(=O)O)CCCCC1; Aze = O=C(O)[C@@H]1CCN1; azaGly = NNC(=O)O; βAla = NCCC(=O)O

T1 sequence (Q969F8 whole entry): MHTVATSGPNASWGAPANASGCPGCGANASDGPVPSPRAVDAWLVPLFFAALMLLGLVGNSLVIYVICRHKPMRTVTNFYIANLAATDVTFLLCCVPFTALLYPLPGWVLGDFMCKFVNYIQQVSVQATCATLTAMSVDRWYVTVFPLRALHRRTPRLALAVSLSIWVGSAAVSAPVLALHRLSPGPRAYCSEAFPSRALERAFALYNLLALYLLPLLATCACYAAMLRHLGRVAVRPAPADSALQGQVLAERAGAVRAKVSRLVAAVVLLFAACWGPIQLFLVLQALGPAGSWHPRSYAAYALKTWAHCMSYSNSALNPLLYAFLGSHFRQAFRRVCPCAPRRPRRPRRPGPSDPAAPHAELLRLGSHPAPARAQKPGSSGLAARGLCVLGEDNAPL
Protocol: Effect Embodiment 1 Determination of Kiss1 Receptor (GPR54) Binding Activity of Kiss1 Receptor (GPR54) Agonist
The binding activity test of each compound from the above the embodiments with kiss1 receptor (GPR54) was performed by fluorescence energy resonance transfer (FRET) detection technology to detect EC50 values of polypeptides and peptide analogs. The cells used in this experiment were NFAT-bla CHO-K1 cells (k1720, invitrogen, thermosher) that express human kiss1 receptor (GPR54). The specific operations were as follows:
Day 1: Seeding Cells in Plate
1. Microscope (CKX41, OLYMPUS), object lens×4 times, ocular lens×10 times. The cells were ensured in a good condition.
2. Digesting the cells, adding 3 ml of 0.05% pancreatin into a culture dish; cells were placed in a 37° C., 5% CO2 incubator for 2 minutes (Thermo Fisher). After the cells became round under the microscope, 7 ml of culture medium was added. The formula of culture medium was as follows: DMEM 90%, dialzedfbS10, NEAA 0.1 mM, HEPES 25 mM, Penicillin 100 U/ml, Streptomycin 100 μm/ml, pH7.3. After blowing and stirring, it was transferred to 15 mL centrifuge tube (430790, Corning). Centrifuge at 1000 rpm for 5 min (5810R, Eppendorf) and the supernatant was discard.
3. Adding 7 mL of culture medium (DMEM+0.1% BSA), it was pipetting into single cell suspension, after counting with Bio-RAD counter, the cell density was adjusted to 312,500 cells/ml.
4. Cells were inoculated into 384 well plates at 32 μL per well, and the cell number was controlled at 10000 cells/well. 32 μl of culture medium was added into the blank control.
Day 2: Dosing and Data Analysis
1) The compound to be tested was prepared into 50 mM working solution with DMSO.
2) 40 μl of the working solution of the compound to be tested was added into column 2 of row A-H of U-shaped 96-well plate (3797, comings), and 60 μl of DMSO was added into column 3-11. 20 μl of compound solution was sucked from the second column to the third column with a multichannel pipette blowing and stirring evenly; 20 μl of compound solution was absorbed from the third column with a multichannel pipette, then added into the fourth column, blowed and stirred to mix well; the compound was serially diluted 4-fold to a total of 10 concentrations. Column 1 and column 12 of 96-well plates were supplemented with 40 μl DMSO.
2. Intermediate Plate Configuration
1) AU-shaped 96-well plate was used, 199 μL of culture medium (DMEM+0.1% BSA) was added to each well, 1 μL of diluted compound (or DMSO) was sucked from 1000× compound plate and added into the 96-well plate at the corresponding position, blowed and stirred to mix well.
2) Homemade positive compounds and compounds to be tested were added. The cell culture plate was took out from the incubator and cells state was observed under microscope. Diluted compound in the intermediate plate or DMSO was added into the cell, 8 μl per well.
3) Cells were cultured in 37° C. and 5% CO2 for 4 hours.
3. The Substrate was Added to Detect the Binding of the Drug to the Receptor
1) 1 μmol/L CCF-4AM solution and buffer solution B, C, D were equilibrated to room temperature. LiveBLAZER™-FRET B/G Loading Kit (K1095, thermo Fisher) containing CCF-4AM and solution B, solution C, solution D were also available from Invitrogen (K1157, thermo Fisher).
2) 6× loading solution was prepared: 6 μl of CCF-4AM dissolved solution A, 60 μl of solution b, 904 μl of solution c, and 30 μl of solution D were pipetted into EP tube, blowed and stirred to mix well.
3) 8 μl of the above-mentioned liquid was sucked with a multichannel pipette, added into a 96-well plate, and incubated for 2 hours at room temperature.
4) The PerkinElmer detector was used to detect the luminous signals of each hole. FI mode, λex=409 nm, λem1=460 nm, λem2=530 nm.
4. Data Processing Using Graphpad Prism 5 (GraphPad Software. Inc)
Effective rate %=(Signal−Min)/(Max−Min)×100%.

As a reminder, the EC50 is the concentration needed to bring the measured effect to its halfway point. For the molecule `CNC(=N)NCCC[C@H](NC(=O)[C@H](CC(C)C)NC(=O)NNC(=O)[C@H](Cc1ccccc1)NC(=O)[C@@H](NC(=O)[C@H](CC(N)=O)NC(=O)[C@@H]1C[C@@H](O)CN1C(=O)[C@@H](NC(C)=O)C(c1ccccc1)c1ccccc1)[C@@H](C)O)C(=O)N[C@@H](Cc1c[nH]c2ccccc12)C(N)=O` [YA-132, Ac-Ala(dip)-Hyp-Asn-Thr-Phe-azaGly-Leu-Arg(Me)-Trp-NH2] (Ac-[Dip][Hyp]NTF[azaGly]L[Arg(Me)]W-NH2), the EC50 came to 0.19 nM.

In the case of `CNC(=N)NCCC[C@H](NC(=O)[C@H](CC(C)C)NC(=O)NNC(=O)[C@H](Cc1ccccc1)NC(=O)[C@H](Cc1ccco1)NC(=O)[C@H](CC(N)=O)NC(=O)[C@@H]1C[C@@H](O)CN1C(=O)[C@@H](Cc1ccc(O)cc1)NC(C)=O)C(=O)N[C@@H](Cc1c[nH]c2ccccc12)C(N)=O` [YA-143, Ac-D-Tyr-Hyp-Asn-2Fua-Phe-azaGly-Leu-Arg(Me)-Trp-NH2] (Ac-[dY][Hyp]N[Ala(2-furyl)]F[azaGly]L[Arg(Me)]W-NH2), the EC50 came out at 0.023 nM.

Consider `CNC(=N)NCCC[C@H](NC(=O)[C@H](CC(C)C)NC(=O)NNC(=O)[C@H](Cc1ccccc1)NC(=O)[C@H](Cc1cccs1)NC(=O)[C@H](CC(N)=O)NC(=O)[C@@H]1C[C@@H](O)CN1C(=O)[C@@H](Cc1ccc(O)cc1)NC(C)=O)C(=O)N[C@@H](Cc1c[nH]c2ccccc12)C(N)=O` [YA-144, Ac-(D-Tyr)-Hyp-Asn-Thi-Phe-azaGly-Leu-Arg(Me)-Trp-NH2] (Ac-[dY][Hyp]N[2Thi]F[azaGly]L[Arg(Me)]W-NH2), for which the EC50 came out at 0.201 nM.

Consider `CNC(=N)NCCC[C@H](NC(=O)[C@H](CC(C)C)NC(=O)NNC(=O)[C@H](Cc1ccccc1)NC(=O)[C@@H](NC(=O)[C@H](CC(N)=O)NC(=O)C1(CNC(=O)[C@@H](Cc2ccc(O)cc2)NC(C)=O)CC1)[C@@H](C)O)C(=O)N[C@@H](Cc1c[nH]c2ccccc12)C(N)=O` [YA-145, Ac-D-Tyr-ACPA-Asn-Thr-Phe-azaGly-Leu-Arg(Me)-Trp-NH2] (Ac-[dY][cPrCO(1-aminomethyl)]NTF[azaGly]L[Arg(Me)]W-NH2), for which the concentration giving a half-maximal response (EC50) worked out at 0.034 nM.

In the case of `CC(=O)N[C@@H](Cc1ccc(O)cc1)C(=O)N[C@@H](CC(N)=O)C(=O)N[C@@H](Cc1c[nH]c2ccccc12)C(=O)N[C@@]1(C)CCCC=CCCC[C@@](C)(C(=O)N[C@@H](CCCNC(=N)N)C(=O)N[C@@H](Cc2ccccc2)C(N)=O)NC(=O)CNC(=O)[C@H](Cc2ccccc2)NC(=O)[C@H](CO)NC1=O` [YA-146, Ac-Tyr-Asn-Trp-X-Ser-Phe-Gly-X-Arg-Phe-NH2 (stapled)] (Ac-YNW[S5]SFG[S5]RF-NH2; staple 4-8), the half-maximal effective concentration (EC50) stood at 545 nM.

In the case of `CNC(=N)NCCC[C@H](NC(=O)[C@H](CC(C)C)NC(=O)NNC(=O)[C@H](Cc1ccccc1)NC(=O)[C@@H](NC(=O)[C@H](CC(N)=O)NC(=O)[C@@H]1C[C@@H](O)CN1C(=O)[C@@H](Cc1ccc(O)cc1)NC(=O)CCOCCOCCOCCOCCOCCOCCOCCOCCNC(C)=O)[C@@H](C)O)C(=O)N[C@@H](Cc1c[nH]c2ccccc12)C(N)=O` [YA-151, Ac-PEG8-(D-Tyr)-Hyp-Asn-Thr-Phe-azaGly-Leu-Arg (Me)-Trp-NH2] (Ac-[PEG8][dY][Hyp]NTF[azaGly]L[Arg(Me)]W-NH2), the EC50 worked out at 0.045 nM.

As for `CNC(=N)NCCC[C@H](NC(=O)[C@H](CC(C)C)NC(=O)[C@@H]1CCN1C(=O)[C@H](Cc1ccccc1)NC(=O)[C@@H](NC(=O)[C@H](CC(N)=O)NC(=O)[C@@H]1C[C@@H](O)CN1C(=O)[C@@H](Cc1ccc(O)cc1)NC(C)=O)[C@@H](C)O)C(=O)N[C@@H](Cc1c[nH]c2ccccc12)C(N)=O` [YA-153, Ac-D-Tyr-Hyp-Asn-Thr-Phe-Aze-Leu-Arg(Me)-Trp-NH2] (Ac-[dY][Hyp]NTF[Aze]L[Arg(Me)]W-NH2), the EC50 stood at 0.18 nM.

For the molecule `CCCCCCCCCCCCCCCC(=O)NCCOCCOCCOCCOCCOCCOCCOCCOCCC(=O)NCC(=O)NCC(=O)N[C@@H](Cc1ccc(O)cc1)C(=O)N[C@@H](CC(N)=O)C(=O)N[C@@H](Cc1c[nH]c2ccccc12)C(=O)N[C@@H](CC(N)=O)C(=O)N[C@@H](CO)C(=O)N[C@@H](Cc1ccccc1)C(=O)NCC(=O)N[C@@H](CC(C)C)C(=O)N[C@@H](CCCNC(=N)N)C(=O)N[C@@H](Cc1ccccc1)C(N)=O` [YA-158, Palm-PEG8-Gly-Gly-Tyr-Asn-Trp-Asn-Ser-Phe-Gly-Leu-Arg-Phe-NH2], the EC50 is 0.0478 nM.

Turning to `CNC(=N)NCCC[C@H](NC(=O)[C@H](CC(C)C)N(C)C(=O)CCNC(=O)[C@H](Cc1ccccc1)NC(=O)[C@@H](NC(=O)[C@H](CC(N)=O)NC(=O)[C@@H]1C[C@@H](O)CN1C(=O)[C@@H](Cc1ccco1)NC(C)=O)[C@@H](C)O)C(=O)N[C@@H](Cc1c[nH]c2ccccc12)C(N)=O` [YA-164, Ac-[3-(2-furyl)-D-Ala]-Hyp-Asn-Thr-Phe-BetaAla-(NMe-Leu)-Arg(Me)-Trp-NH2] (Ac-[dAla(2-furyl)][Hyp]NTF[βAla][NMeL][Arg(Me)]W-NH2), the EC50 amounted to 1.75 nM.

`CNC(=N)NCCC[C@H](NC(=O)[C@H](CC(C)C)NC(=O)NNC(=O)[C@H](Cc1ccccc1)NC(=O)[C@@H](NC(=O)[C@H](CC(N)=O)NC(=O)[C@@H](Cc1ccco1)NC(=O)[C@@H](Cc1ccc(O)cc1)NC(C)=O)[C@@H](C)O)C(=O)N[C@@H](Cc1c[nH]c2ccccc12)C(N)=O` [YA-165, Ac-D-Tyr-(D-2Fua)-Asn-Thr-Phe-azaGly-Leu-Arg(Me)-Trp-NH2] (Ac-[dY][dAla(2-furyl)]NTF[azaGly]L[Arg(Me)]W-NH2): the EC50 is 0.025 nM.

Turning to `CNC(=N)NCCC[C@H](NC(=O)[C@H](CC(C)C)NC(=O)NNC(=O)[C@H](Cc1ccccc1)NC(=O)[C@@H](Cc1ccco1)NC(=O)[C@H](CC(N)=O)NC(=O)[C@@H]1C[C@@H](O)CN1C(=O)[C@@H](Cc1ccc(O)cc1)NC(C)=O)C(=O)N[C@@H](Cc1c[nH]c2ccccc12)C(N)=O` [YA-166] (Ac-[dY][Hyp]N[dAla(2-furyl)]F[azaGly]L[Arg(Me)]W-NH2), the EC50 is 0.86 nM.

In the case of `CNC(=N)NCCC[C@H](NC(=O)[C@H](CC(C)C)NC(=O)[C@@H](Cc1ccco1)NC(=O)[C@H](Cc1ccccc1)NC(=O)[C@@H](NC(=O)[C@H](CC(N)=O)NC(=O)[C@@H]1C[C@@H](O)CN1C(=O)[C@@H](Cc1ccc(O)cc1)NC(C)=O)[C@@H](C)O)C(=O)N[C@@H](Cc1c[nH]c2ccccc12)C(N)=O` [YA-168, Ac-D-Tyr-Hyp-Asn-Thr-Phe-(D-2Fua)-Leu-Arg(Me)-Trp-NH2] (Ac-[dY][Hyp]NTF[dAla(2-furyl)]L[Arg(Me)]W-NH2), the EC50 stood at 0.531 nM.

With `CNC(=N)NCCC[C@H](NC(=O)[C@H](CC(C)C)NC(=O)NNC(=O)[C@H](Cc1ccccc1)NC(=O)[C@@H](NC(=O)[C@H](CC(N)=O)NC(=O)[C@@H]1C[C@@H](O)CN1C(=O)[C@@H](Cc1ccc(O)cc1)NC(C)=O)[C@@H](C)O)C(=O)N[C@H](Cc1ccco1)C(N)=O` [YA-169, Ac-(D-Tyr)-Hyp-Asn-Thr-Phe-azaGly-Leu-Arg(Me)-[3-(2-furyl)-D-Ala]-NH2] (Ac-[dY][Hyp]NTF[azaGly]L[Arg(Me)][dAla(2-furyl)]-NH2), the EC50 is 6.53 nM.

Turning to `CNC(=N)NCCC[C@H](NC(=O)[C@H](CC(C)C)NC(=O)NNC(=O)[C@H](Cc1ccccc1)NC(=O)[C@@H](NC(=O)[C@H](CC(N)=O)NC(=O)[C@@H]1C[C@@H](O)CN1C(=O)[C@@H](Cc1ccc(F)cc1)NC(C)=O)[C@@H](C)O)C(=O)N[C@@H](Cc1c[nH]c2ccccc12)C(N)=O` [YA-170, Ac-[D-Phe(4-F)]-Hyp-Asn-Thr-Phe-azaGly-Leu-Arg(Me)-Trp-NH2] (Ac-[dPhe(4-F)][Hyp]NTF[azaGly]L[Arg(Me)]W-NH2), the EC50 turned out to be 0.007 nM.

Turning to `CNC(=N)NCCC[C@H](NC(=O)[C@H](CC(C)C)NC(=O)NNC(=O)C1(NC(=O)[C@@H](NC(=O)[C@H](CC(N)=O)NC(=O)[C@@H]2C[C@@H](O)CN2C(=O)[C@@H](Cc2ccc(O)cc2)NC(C)=O)[C@@H](C)O)CCCCC1)C(=O)N[C@@H](Cc1c[nH]c2ccccc12)C(N)=O` [YA-174, Ac-(D-Tyr)-Hyp-Asn-Thr-A6c-azaGly-Leu-Arg(Me)-Trp-NH2] (Ac-[dY][Hyp]NT[Ac6c][azaGly]L[Arg(Me)]W-NH2), the EC50 stood at 2.6 nM.

As to `CNC(=N)NCCC[C@H](NC(=O)[C@H](CC(C)C)NC(=O)NNC(=O)[C@H](Cc1ccccc1)NC(=O)[C@@H](NC(=O)[C@H](CC(N)=O)NC(=O)[C@H](Cc1cccs1)NC(=O)[C@@H](Cc1ccc(Cl)cc1Cl)NC(C)=O)[C@@H](C)O)C(=O)N[C@@H](Cc1c[nH]c2ccccc12)C(N)=O` [YA-178, Ac-[D-Phe(2,4-DiCl)]-Thi-Asn-Thr-Phe-azaGly-Leu-Arg(Me)-Trp-NH2] (Ac-[dPhe(2,4-Cl2)][2Thi]NTF[azaGly]L[Arg(Me)]W-NH2), the EC50 worked out at 0.011 nM.

For the molecule `CNC(=N)NCCC[C@H](NC(=O)[C@H](CC(C)C)NC(=O)N1CCCN1C(=O)[C@H](Cc1ccccc1)NC(=O)[C@@H](NC(=O)[C@H](CC(N)=O)NC(=O)[C@@H]1C[C@@H](O)CN1C(=O)[C@@H](Cc1ccc(Cl)cc1Cl)NC(C)=O)[C@@H](C)O)C(=O)N[C@@H](Cc1c[nH]c2ccccc12)C(N)=O` [YA-184, Ac-[D-Phe(2,4-DiCl)]-Hyp-Asn-Thr-Phe-azaPro-Leu-Arg(Me)-Trp-NH2] (Ac-[dPhe(2,4-Cl2)][Hyp]NTF[azaPro]L[Arg(Me)]W-NH2), the EC50 was determined as 48 nM.

As to `CNC(=N)NCCC[C@H](NC(=O)[C@H](CC(C)C)N(C)C(=O)CCNC(=O)[C@H](Cc1ccccc1)NC(=O)[C@@H](NC(=O)[C@H](CC(N)=O)NC(=O)[C@@H]1CCCCN1C(=O)[C@@H](Cc1ccc(Cl)cc1Cl)NC(C)=O)[C@@H](C)O)C(=O)N[C@@H](Cc1c[nH]c2ccccc12)C(N)=O` [YA-185, Ac-[D-Phe(2,4-DiCl)]-(S-Pip)-Asn-Thr-Phe-BetaAla-NMeLeu-Arg(Me)-Trp-NH2] (Ac-[dPhe(2,4-Cl2)][Pip]NTF[βAla][NMeL][Arg(Me)]W-NH2), the EC50 was found to be 3.63 nM.

In the case of `CNC(=N)NCCC[C@H](NC(=O)[C@H](CC(C)C)N(C)C(=O)CCNC(=O)[C@H](Cc1ccccc1)NC(=O)[C@@H](NC(=O)[C@H](CC(N)=O)NC(=O)[C@@H]1CC(F)(F)CN1C(=O)[C@@H](Cc1ccco1)NC(C)=O)[C@@H](C)O)C(=O)N[C@@H](Cc1c[nH]c2ccccc12)C(N)=O` [YA-186, Ac-[3-(2-Furyl)-D-Ala]-(DiFluorPro)-Asn-Thr-Phe-BetaAla-NMeLeu-Arg(Me)-Trp-NH2] (Ac-[dAla(2-furyl)][Pro(4,4-F2)]NTF[βAla][NMeL][Arg(Me)]W-NH2), the EC50 is 3.89 nM.
